The values below come from patent US20080262097A1, “Formulations” (priority 2005, published 2008).

In brackets after ≈: the same amount, converted by molar mass. Like-named read-outs stand apart in the source and are kept apart here.

The subject of experiment [1] is S. aureus ATCC 29213. The experiment in a line: Synergy disc diffusion assay (SDDA). Particulars: for SDDA area increase / SDDA increase: quinone + BP; for SDDA area increase: over larger single-compound zone; for SDDA increase: over larger single-compound zone diameter; for SDDA with BP: quinone combined with BP on one disc, 200 μg of each (thymoquinone 50 μg). The class given is cell-based, Staphylococcus aureus. From the text: 1. Staphylococcus aureus—the principal staphylococcal test micro-organism used in these studies was Staphylococcus aureus ATCC 29213. This strain is the one recommended for QC/QA purposes in Minimum Inhibitory Concentration (MIC) assays by the US Clinical and Laboratory Standards Institute (formerly the NCCLS), an FDA-recognised body. S. aureus ATCC 29213 is susceptible to beta-lactam antibiotics such as methicillin and to many other antibiotics in clinical use worldwide today. The staphylococci and enterococci were cultured and maintained on Mueller-Hinton Medium (agar and broth) at pH 7.2; they were incubated aerobically at 37° C. for 24 hours. This is a variation on the DDA method, in which two compounds are tested together for their combined antimicrobial activity. It provides a qualitative indication as to whether the compounds are likely to interact synergistically. Two test compounds A and B were placed on a single paper disc and the above described DDA procedure repeated. An increase in diameter of the zone of inhibition, compared to the greater of the zone diameters for the two compounds individually, was taken to indicate potential antimicrobial synergy. […] The larger the increase in zone size, the greater the likelihood of a synergistic interaction between the two test compounds. Each of the quinones was then subjected, in combination with BP, to the SDDA assay described above. In each case, increases in zone diameter (mm) and area (%) were measured with respect to those observed for the compound showing the larger zone diameters during the previous disc diffusion assays on the individual compounds. […] The exceptions were the thymoquinone assays, in which only 50 μg of the benzoquinone was used.
(In agar diffusion tests the substance spreads into inoculated agar from a disc or well.)

Experiment [2] relates to S. aureus ATCC 29213. The experiment in a line: Supplemented disc diffusion assay (DDA + salt, lipid or blood). Type of experiment: cell-based, Staphylococcus aureus. Particulars: 200 μg per disc (thymoquinone 50 μg); for DDA + blood: agar supplemented with blood; for DDA + lipid: agar supplemented with lipid; for DDA + salt: agar supplemented with salt. Here is the method: The staphylococci and enterococci were cultured and maintained on Mueller-Hinton Medium (agar and broth) at pH 7.2; they were incubated aerobically at 37° C. for 24 hours. A sterile paper disc was impregnated with a sample of the test compound and a minimum of 30 minutes allowed for the solvents to evaporate as far as possible. The disc was then placed on an agar plate onto which the test micro-organism had been inoculated. The plate was then incubated under the conditions described above, following which it was examined visually for signs of bacterial growth. If the test compound had antimicrobial activity, a circular zone of no growth would be obtained around the disc. The diameter of this zone of “inhibition” was measured using a ProtoCOL™ automated zone sizer (Synbiosis, Cambridge, UK). In general, a greater diameter and/or area of the zone of inhibition indicates a greater antimicrobial activity in the relevant test compound, although other factors such as test compound mobility through the agar gel may also influence the result. Either the DDA or the SDDA tests may be carried out using an agar gel supplemented with blood, lipid and/or salt to simulate some of the major components present in human skin and to assess whether these substances might reduce the antimicrobial activity observed for the test compounds. Performance under these conditions can provide a more reliable indication of activity on topical application. […] MIC, MBC and DDA assays, as described above, were carried out using the test compound benzoyl peroxide (BP) and a range of different benzoquinones and hydroquinones. Supplemented DDA assays, in the presence of salt, lipid and blood, were also conducted. […] The exceptions were the thymoquinone assays, in which only 50 μg of the benzoquinone was used.

Experiment [3] relates to P. acnes NCTC 737. The experiment in a line: Supplemented disc diffusion assay (DDA + salt or lipid). Type of experiment: cell-based, Propionibacterium acnes. Particulars: 200 μg per disc; for DDA + lipid: agar supplemented with lipid; for DDA + salt: agar supplemented with salt. Here is the method: The Propionibacterium spp organisms were cultured and maintained on Wilkins-Chalgren Anaerobe Medium (agar and broth) at pH 6.0; cultures were incubated anaerobically at 37° C. for 72 hours. A sterile paper disc was impregnated with a sample of the test compound and a minimum of 30 minutes allowed for the solvents to evaporate as far as possible. The disc was then placed on an agar plate onto which the test micro-organism had been inoculated. The plate was then incubated under the conditions described above, following which it was examined visually for signs of bacterial growth. If the test compound had antimicrobial activity, a circular zone of no growth would be obtained around the disc. The diameter of this zone of “inhibition” was measured using a ProtoCOL™ automated zone sizer (Synbiosis, Cambridge, UK). In general, a greater diameter and/or area of the zone of inhibition indicates a greater antimicrobial activity in the relevant test compound, although other factors such as test compound mobility through the agar gel may also influence the result. Either the DDA or the SDDA tests may be carried out using an agar gel supplemented with blood, lipid and/or salt to simulate some of the major components present in human skin and to assess whether these substances might reduce the antimicrobial activity observed for the test compounds. Performance under these conditions can provide a more reliable indication of activity on topical application. […] MIC, MBC and DDA assays, as described above, were carried out using BP and a range of different benzoquinones and hydroquinones. Supplemented DDA assays, in the presence of salt and lipid, were also conducted.

Experiment [4] deals with P. avidum ATCC 25577. As to the kind of experiment: MBC assay. The conditions noted are these: Cutibacterium avidum, ATCC25577. The class given is cell-based. The method, then: (§1) The Propionibacterium spp organisms were cultured and maintained on Wilkins-Chalgren Anaerobe Medium (agar and broth) at pH 6.0; cultures were incubated anaerobically at 37° C. for 72 hours.
(§2) This assay, normally carried out after an MIC assay, determines the minimum concentration of a compound that is lethal to the micro-organism being tested.
(§3) These samples were then individually sub-cultured on non-selective agar medium, under the incubation conditions described above. Following incubation they were examined visually for bacterial growth.

In experiment [5] the test system is P. granulosum NCTC 11865. As to the kind of experiment: MBC assay. Type of experiment: cell-based. The conditions noted are these: P. granulosum NCTC 11865 (resistance None). The method, then:
as §1, §2, §3

The subject of experiment [6] is P. granulosum PRP-005. The experiment in a line: MBC assay. The class given is cell-based. Particulars: P. granulosum PRP-005 (resistance MLSK). Here is the method:
as §1, §2, §3

For experiment [7], the system named is P. granulosum PRP-043. As to the kind of experiment: MBC assay. The class given is cell-based. Particulars: P. granulosum PRP-043 (resistance MLS). The method, then: as §1, §2, §3
Experiment [8] deals with P. granulosum PRP-044. The experiment in a line: MBC assay. The class given is cell-based. The conditions noted are these: P. granulosum PRP-044 (resistance MLS). The method, then:
as §1, §2, §3

Experiment [9] relates to P. granulosum PRP-055. The experiment in a line: MBC assay. The class given is cell-based. The conditions noted are these: P. granulosum PRP-055 (resistance None). The method, then:
as §1, §2, §3

For `Oc1ccc(O)cc1` [p-hydroquinone], in experiment [1], the SDDA area increase came to 210.15%, the SDDA increase is 14.42 mm and the “SDDA with BP” value was 33.36 mm. Also, in [2], the “DDA + blood” value is listed as 14.01 mm, the “DDA + lipid” value turned out to be 15.56 mm and the “DDA + salt” value is recorded as 16.61 mm. Further, in experiment [3], the “DDA + lipid” value worked out at 0.0 mm and the “DDA + salt” value stood at 0.0 mm.

Take `CCc1cc(O)ccc1O` [2-ethyl-p-hydroquinone]: in experiment [1], the SDDA area increase was found to be 105.49%, the SDDA increase was 9.13 mm and the “SDDA with BP” value turned out to be 30.19 mm. Moreover, in experiment [2], the “DDA + blood” value was determined as 17.74 mm, the “DDA + lipid” value is listed as 23.04 mm and the “DDA + salt” value is 24.59 mm. Further, in [3], the “DDA + lipid” value stood at 0.0 mm and the “DDA + salt” value was determined as 9.38 mm.

For the molecule `CC(C)(C)c1cc(O)ccc1O` [TBHQ, t-butyl hydroquinone], the SDDA area increase in experiment [1] is given as 169.30%. The SDDA increase in experiment [1] is 26.77 mm. In addition, in experiment [1], the “SDDA with BP” value is reported as 68.54 mm. The MBC in [4] (P. avidum ATCC 25577 (resistance None), read-out: MBC) came to 3.9 µg/mL (≈ 23.5 µM); in [5], 7.8 µg/mL (≈ 46.9 µM); in [6], 62.5 µg/mL (≈ 376 µM); in [7] it was 15.6 µg/mL (≈ 93.9 µM); in [8], 31.2 µg/mL (≈ 188 µM); in [9] it was 7.8 µg/mL (≈ 46.9 µM). For the same molecule, the “DDA + blood” value in [2] was found to be 10.89 mm. Also, the “DDA + lipid” value in [2] is given as 31.44 mm; in [3] it was 10.37 mm. Further, the “DDA + salt” value in experiment [2] is on record as 54.16 mm; in experiment [3], 19.48 mm.

For `O=C(OOC(=O)c1ccccc1)c1ccccc1` [benzoyl peroxide], the MBC amounted to 62.5 µg/mL (≈ 258 µM) in [4]; 15.6 µg/mL (≈ 64.4 µM) in [5]; 15.6 µg/mL (≈ 64.4 µM) in experiment [6]; 62.5 µg/mL (≈ 258 µM) in experiment [7]; 31.2 µg/mL (≈ 129 µM) in [8]; 15.6 µg/mL (≈ 64.4 µM) in experiment [9].

`Cc1c(O)ccc(O)c1C` [2,3-dimethyl-p-hydroquinone]: in [1], the SDDA area increase was determined as 52.39%, the SDDA increase is listed as 7.83 mm and the “SDDA with BP” value stood at 41.25 mm. In [2], the “DDA + blood” value amounted to 14.32 mm, the “DDA + lipid” value amounted to 35.80 mm and the “DDA + salt” value amounted to 34.24 mm. In experiment [3], the “DDA + lipid” value is 13.75 mm and the “DDA + salt” value is on record as 14.38 mm.

As for `CC1=CC(=O)C(C(C)C)=CC1=O` [thymoquinone, 2-iso-propyl-5-methyl-p-benzoquinone], in experiment [1], the SDDA area increase is reported as 120.91%, the SDDA increase is 7.60 mm and the “SDDA with BP” value worked out at 23.24 mm. Moreover, in [2], the “DDA + blood” value was found to be 0.0 mm, the “DDA + lipid” value turned out to be 18.99 mm and the “DDA + salt” value turned out to be 20.54 mm. Further, in experiment [3], the “DDA + lipid” value amounted to 49.01 mm and the “DDA + salt” value came out at 46.49 mm.

With `O=C1C=CC(=O)C=C1` [p-benzoquinone], in [1], the SDDA area increase was found to be 37.25%, the SDDA increase is given as 5.03 mm and the “SDDA with BP” value is listed as 34.38 mm. Moreover, in experiment [2], the “DDA + blood” value is recorded as 20.31 mm, the “DDA + lipid” value is 29.05 mm and the “DDA + salt” value is listed as 27.49 mm. Further, in [3], the “DDA + lipid” value amounted to 37.98 mm and the “DDA + salt” value turned out to be 31.44 mm.

As usually defined, the MBC is the smallest concentration meeting the test's criterion for killing.
